In US8754038B2, “Template-fixed peptidomimetics with CCR10 antagonistic activity” (priority 2009, dated 2014):
Numbered stars: 1 amine (or outer) side, 2 acyl side, 3 side chain; on linkers, the order of the positions; unused ones are H or OH. Square brackets hold non-standard residues; d marks the D form. Peptide text beside a SMILES is read from it. * marks the point of attachment. X4 = N#Cc1cccc(C[C@@H]2C[C@@H](C(=O)[*:2])N([*:1])C2)c1; Pro(4R-OPh) = O=C(O)[C@@H]1C[C@@H](Oc2ccccc2)CN1; Trp(6-Cl) = N[C@@H](Cc1c[nH]c2cc(Cl)ccc12)C(=O)O; Phe(4-CF3) = N[C@@H](Cc1ccc(C(F)(F)F)cc1)C(=O)O; Trp(5-OH) = N[C@@H](Cc1c[nH]c2ccc(O)cc12)C(=O)O; Phe(4-CN) = N#Cc1ccc(C[C@H](N)C(=O)O)cc1; Phe(4-Cl) = N[C@@H](Cc1ccc(Cl)cc1)C(=O)O; Tic(7-OH) = O=C(O)[C@@H]1Cc2ccc(O)cc2CN1; X13 = CC1(C)CC[C@@H](C(=O)[*:2])N1[*:1]; Phe(4-F) = N[C@@H](Cc1ccc(F)cc1)C(=O)O; 2Nal = N[C@@H](Cc1ccc2ccccc2c1)C(=O)O; Hyp = O=C(O)[C@@H]1C[C@@H](O)CN1; Tic = O=C(O)[C@@H]1Cc2ccccc2CN1; Benzyl(4-Br) = Brc1ccc(C*)cc1; Pip = O=C(O)[C@@H]1CCCCN1; dPip = O=C(O)[C@H]1CCCCN1; Thz = O=C(O)[C@@H]1CSCN1; Ac5c = NC1(C(=O)O)CCCC1; Dab = NCC[C@H](N)C(=O)O; dAze = O=C(O)[C@H]1CCN1; X10 = N#Cc1ccc(C*)cc1; Aib = CC(C)(N)C(=O)O; Bn = c1ccc(C*)cc1

Assays:
human CCR10 [1] = biological target: T1, human CCR10 (Homo sapiens, UniProt P46092); assay: Chemotaxis assay (CCR10-transfected 300-19 cells, CCL27 gradient); format: cell-based; conditions: CCR10-transfected 300-19 murine pre-B cells; 30 nM CCL27 gradient
T1 construct: expressed in transfected cells
T1 sequence (P46092 1-362): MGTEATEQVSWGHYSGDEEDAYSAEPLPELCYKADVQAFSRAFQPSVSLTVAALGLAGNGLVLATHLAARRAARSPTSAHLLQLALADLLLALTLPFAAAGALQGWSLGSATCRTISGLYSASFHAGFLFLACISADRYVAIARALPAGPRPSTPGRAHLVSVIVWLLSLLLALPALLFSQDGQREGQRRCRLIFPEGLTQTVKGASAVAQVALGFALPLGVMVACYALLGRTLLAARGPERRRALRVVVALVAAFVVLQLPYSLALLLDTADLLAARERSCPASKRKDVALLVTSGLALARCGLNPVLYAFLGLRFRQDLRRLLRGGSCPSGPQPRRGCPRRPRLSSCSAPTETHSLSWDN
Protocol: (§1) Lyophilized peptides were weighed on a Microbalance (Mettler MX5) and dissolved in aqueous 90% DMSO to a final concentration of 10 mM unless otherwise stated. Stock solutions were kept at +4° C., and protected from light.
(§2) Peptides were assayed for CCR10 antagonism in a calcium flux assay and in a chemotaxis assay using a mouse pre-B cell line 300-19 stably transfected with human CCR10, and with human CCL27 as agonist.
The chemotactic response of CCR10-transfected 300-19 murine pre-B cells to a gradient of CCL27 (CTACK) was measured using disposable Transwell® assay plates from Costar (5 μm pore size) according to the protocol of the manufacturer. Briefly, cells were grown under sterile conditions at 37° C. with 5% CO2 in flasks containing RPMI+5% FCS, glutamine, penicillin/streptomycin (all media components were from Life Technologies) and the appropriate selection antibiotics (Puromycin, G418 or Tetracycline). For the assay, cells were pelleted by centrifugation, washed once in Dulbecco's phosphate buffered saline (DPBS), and resuspended to give 1×10^6 cells/ml in RPMI+0.5% bovine serum albumin (BSA). 100 μl of cell suspension was applied to the top of the assay filter. The β-hairpin peptidomimetics, diluted in the same assay medium, were added to both top and bottom chambers. The cells were allowed to migrate for 4-6 hours at 37° C. into the bottom chamber of the assay plate containing 30 nM of CCL27 (RnD systems). Migrated cells were counted using a FACS cytometer (Cytomics FC500, Beckman Coulter). Data normalization was performed using the number of any cells that had migrated in the absence of the β-hairpin peptidomimetic and the number of cells that have randomly migrated in absence of CCL27 [these values were taken as 100% (no inhibitory activity) and 0%, respectively]. From a range of compound concentrations IC50 were determined using Prism5 (GraphPad software).

human CCR10 [2] = biological target: T1, human CCR10; assay: Calcium flux assay (CCR10 antagonism, CCL27 as agonist); format: cell-based; conditions: CCR10 transfected 300-19 murine pre-B cells; CCL27 30 nM
Protocol: as §1, §2
The calcium flux release was assessed using CCR10 transfected 300-19 murine pre-B cells. These cells were labeled as a batch with Calcium4 Reagent (Molecular Devices, Sunnyvale, Calif.) in HBSS buffer for 60 min.
After dispensing 8×10^4 cells in each well of a 384-well black plate, a concentrated solution of the β-hairpin peptidomimetics of this invention in HBSS+0.1% BSA+0.1% DMSO (final concentration) was added to the cells. The entire plate was centrifuged and placed in a Flexstation II (Molecular Devices) automated plate reader. After reading a 20 s baseline, the Flexstation dispensed CCL27 (RnD systems) at a final concentration of 30 nM in HBSS+0.1% BSA onto the cells and calcium flux was measured for an additional 70 s.
Alternatively a FIipR384 (Molecular Devices) was used for read out of the 384-well plates. In this case about 8×10^4 cells were placed in each well, centrifuged, placed in the FlipR and after 5 s of baseline reading, the β-hairpin peptidomimetics in HBSS+0.1% BSA+0.1% DMSO (final concentration) were added. After an incubation time of 5 min, the CCL27 solution was added to the mixture and the calcium flux was measured for 200 s.
The maximum signal was determined from control wells without inhibitor. Percentage of inhibition was calculated from a range of compound concentrations, which were subsequently used to calculate IC50 values (Softmax Pro, Molecular Devices). All steps were carried out at room temperature.

| SMILES | IC50 (human CCR10 [1]) | IC50 (human CCR10 [2]) |
| --- | --- | --- |
| NCC[C@@H]1NC(=O)[C@H](Cc2c[nH]c3ccccc23)NC(=O)C2(CCCC2)NC(=O)[C@H](Cc2c[nH]c3cc(Cl)ccc23)NC(=O)[C@@H]2C[C@@H](OCc3ccccc3)CN2C(=O)[C@H]2CCCN2C1=O [compound 48, cyclo(-Trp(6Cl)-Cyp-Trp-Dab-^DPro-Hyp(Bn)-)] (cyclo([Ac5c]W[Dab][dP][Hyp](Bn)[Trp(6-Cl)])) | 8.6 nM | 8.5 ± 3.5 nM |
| CC1(C)CC[C@H]2C(=O)N[C@@H](Cc3c[nH]c4ccccc34)C(=O)NC3(CCCC3)C(=O)N[C@@H](Cc3c[nH]c4ccccc34)C(=O)N[C@@H](CCN)C(=O)N3CCC[C@@H]3C(=O)N21 [compound 42, cyclo(-Trp-Cyp-Trp-Dab-^DPro-Pro(5,5Me2)-)] (cyclo(W[Ac5c]W[Dab][dP][X13])) | 14.2 nM | 82.5 ± 30.4 nM |
| NCC[C@@H]1NC(=O)[C@H](Cc2c[nH]c3ccccc23)NC(=O)C2(CCCC2)NC(=O)[C@H](Cc2c[nH]c3ccccc23)NC(=O)[C@@H]2C[C@@H](Oc3ccccc3)CN2C(=O)[C@H]2CCCN2C1=O [compound 52, cyclo(-Trp-Cyp-Trp-Dab-^DPro-Hyp(Ph)-)] (cyclo([Ac5c]W[Dab][dP][Pro(4R-OPh)]W)) | 37 nM | 42 ± 25.1 nM |
| NCC[C@@H]1NC(=O)[C@H](Cc2c[nH]c3ccccc23)NC(=O)C2(CCCC2)NC(=O)[C@H](Cc2c[nH]c3ccccc23)NC(=O)[C@@H]2Cc3ccccc3CN2C(=O)[C@H]2CCN2C1=O [Ex. 26, cyclo(-Trp-Cyp-Trp-Dab-^DAze-Tic-)] (cyclo([Ac5c]W[Dab][dAze][Tic]W)) |  | 57 ± 26.4 nM |
| NCC[C@@H]1NC(=O)[C@H](Cc2ccc(Cl)cc2)NC(=O)C2(CCCC2)NC(=O)[C@H](Cc2c[nH]c3ccccc23)NC(=O)[C@@H]2C[C@@H](OCc3ccccc3)CN2C(=O)[C@H]2CCCN2C1=O [Ex. 43, cyclo(-Trp-Cyp-Phe(4Cl)-Dab-^DPro-Hyp(Bn)-)] (cyclo([Ac5c][Phe(4-Cl)][Dab][dP][Hyp](Bn)W)) |  | 39.9 ± 34.8 nM |
| N=C(N)NCCC[C@@H]1NC(=O)[C@H](Cc2c[nH]c3ccccc23)NC(=O)C2(CCCC2)NC(=O)[C@H](Cc2c[nH]c3ccccc23)NC(=O)[C@@H]2Cc3ccccc3CN2C(=O)[C@H]2CCN2C1=O [Ex. 25, cyclo(-Trp-Cyp-Trp-Arg-^DAze-Tic-)] (cyclo([Ac5c]WR[dAze][Tic]W)) |  | 70.4 ± 19.2 nM |
| CC1(C)NC(=O)[C@H](Cc2c[nH]c3ccccc23)NC(=O)[C@@H]2Cc3ccccc3CN2C(=O)[C@H]2CCCN2C(=O)[C@H](CCN)NC(=O)[C@H](Cc2c[nH]c3ccccc23)NC1=O [Ex. 2, cyclo(-Trp-Aib-Trp-Dab-^DPro-Tic-)] (cyclo([Aib]W[Dab][dP][Tic]W)) | 21.6 nM | 200 ± 56.5 nM |
| N#Cc1ccc(C[C@@H]2NC(=O)[C@@H]3C[C@@H](OCc4ccccc4)CN3C(=O)[C@H]3CCCN3C(=O)[C@H](CO)NC(=O)[C@H](Cc3ccc(F)cc3)NC(=O)C3(CCCC3)NC2=O)cc1 [compound 44, cyclo(-Phe(4CN)-Cyp-Phe(4F)-Ser-^DPro-Hyp(Bn)-)] (cyclo([Ac5c][Phe(4-F)]S[dP][Hyp](Bn)[Phe(4-CN)])) | 13.5 nM | 1.9 ± 2.1 nM |
| NCC[C@@H]1NC(=O)[C@H](Cc2c[nH]c3ccccc23)NC(=O)C2(CCCC2)NC(=O)[C@H](Cc2ccc3ccccc3c2)NC(=O)[C@@H]2CCCCN2C(=O)[C@H]2CCCCN2C1=O [Ex. 10, cyclo(-2NaI-Cyp-Trp-Dab-^DPip-Pip-)] (cyclo([2Nal][Ac5c]W[Dab][dPip][Pip])) | 9.7 nM | 43.2 ± 44.9 nM |
| N=C(N)NCCC[C@@H]1NC(=O)[C@H](Cc2c[nH]c3ccccc23)NC(=O)C2(CCCC2)NC(=O)[C@H](Cc2c[nH]c3ccc(O)cc23)NC(=O)[C@@H]2Cc3ccccc3CN2C(=O)[C@H]2CCCN2C1=O [Ex. 8, cyclo(-Trp(5OH)-Cyp-Trp-Arg-^DPro-Tic-)] (cyclo([Ac5c]WR[dP][Tic][Trp(5-OH)])) |  | 52.5 ± 3.5 nM |
| N#Cc1cccc(C[C@@H]2C[C@H]3C(=O)N[C@@H](Cc4c[nH]c5ccccc45)C(=O)NC4(CCCC4)C(=O)N[C@@H](Cc4c[nH]c5ccccc45)C(=O)N[C@@H](CCN)C(=O)N4CCC[C@@H]4C(=O)N3C2)c1 [compound 40, cyclo(-Trp-Cyp-Trp-Dab-^DPro-Pro((4R)3CNBn)-)] (cyclo([Ac5c]W[Dab][dP][X4]W)) | 3.8 nM | 27.9 ± 10.5 nM |
| N#Cc1ccc(C[C@@H]2NC(=O)[C@@H]3C[C@@H](OCc4ccccc4)CN3C(=O)[C@H]3CCCN3C(=O)[C@H](CCC(N)=O)NC(=O)[C@H](Cc3c[nH]c4ccccc34)NC(=O)C3(CCCC3)NC2=O)cc1 [compound 47, cyclo(-Phe(4CN)-Cyp-Trp-Gln-^DPro-Hyp(Bn)-)] (cyclo([Ac5c]WQ[dP][Hyp](Bn)[Phe(4-CN)])) |  | 21.7 ± 3.9 nM |
| NCC[C@@H]1NC(=O)[C@H](Cc2c[nH]c3ccccc23)NC(=O)C2(CCCC2)NC(=O)[C@H](Cc2c[nH]c3ccccc23)NC(=O)[C@@H]2CSCN2C(=O)[C@H]2CCCN2C1=O [compound 6, cyclo(-Trp-Cyp-Trp-Dab-^DPro-Thz-)] (cyclo([Ac5c]W[Dab][dP][Thz]W)) | 19.6 nM | 134 ± 73.3 nM |
| NC(=O)CC[C@@H]1NC(=O)[C@H](Cc2c[nH]c3ccccc23)NC(=O)C2(CCCC2)NC(=O)[C@H](Cc2ccc3ccccc3c2)NC(=O)[C@@H]2Cc3ccccc3CN2C(=O)[C@H]2CCCN2C1=O [Ex. 9, cyclo(-2NaI-Cyp-Trp-Gln-^DPro-Tic-)] (cyclo([2Nal][Ac5c]WQ[dP][Tic])) | 2 nM | 9.2 ± 3.6 nM |
| N#Cc1ccc(CO[C@@H]2C[C@H]3C(=O)N[C@@H](Cc4c[nH]c5ccccc45)C(=O)NC4(CCCC4)C(=O)N[C@@H](Cc4c[nH]c5ccccc45)C(=O)N[C@@H](CCN)C(=O)N4CCC[C@@H]4C(=O)N3C2)cc1 [compound 53, cyclo(-Trp-Cyp-Trp-Dab-^DPro-Hyp(4CNBn)-)] (cyclo([Ac5c]W[Dab][dP][Hyp](X10)W)) | 143 nM | 48.9 ± 40 nM |
| NCC[C@@H]1NC(=O)[C@H](Cc2c[nH]c3ccccc23)NC(=O)C2(CCCC2)NC(=O)[C@H](Cc2ccc(C(F)(F)F)cc2)NC(=O)[C@@H]2C[C@@H](OCc3ccc(Br)cc3)CN2C(=O)[C@H]2CCCN2C1=O [Ex. 54, cyclo(-Phe(4CF3)-Cyp-Trp-Dab-^DPro-Hyp(4BrBn)-)] (cyclo([Ac5c]W[Dab][dP][Hyp](Benzyl(4-Br))[Phe(4-CF3)])) |  | 22.6 ± 13.6 nM |
| NCC[C@@H]1NC(=O)[C@H](Cc2c[nH]c3ccccc23)NC(=O)C2(CCCC2)NC(=O)[C@H](Cc2c[nH]c3ccccc23)NC(=O)[C@@H]2C[C@@H](O)CN2C(=O)[C@H]2CCCN2C1=O [Ex. 103, cyclo(-Trp-Cyp-Trp-Dab-^DPro-Hyp-)] (cyclo([Ac5c]W[Dab][dP][Hyp]W)) |  | 190 ± 89.8 nM |
| N=C(N)NCCC[C@@H]1NC(=O)[C@H](Cc2c[nH]c3ccccc23)NC(=O)C2(CCCC2)NC(=O)[C@H](Cc2c[nH]c3ccccc23)NC(=O)[C@@H]2Cc3ccc(O)cc3CN2C(=O)[C@H]2CCCN2C1=O [Ex. 3, cyclo(-Trp-Cyp-Trp-Arg-^DPro-Tic(7OH)—)] (cyclo([Ac5c]WR[dP][Tic(7-OH)]W)) |  | 78.5 ± 38.6 nM |
| N=C(N)NCCC[C@@H]1NC(=O)[C@H](Cc2c[nH]c3ccccc23)NC(=O)C2(CCCC2)NC(=O)[C@H](Cc2c[nH]c3ccccc23)NC(=O)[C@@H]2CSCN2C(=O)[C@H]2CCCN2C1=O [Ex. 5, cyclo(-Trp-Cyp-Trp-Arg-DPro-Thz-)] (cyclo([Ac5c]WR[dP][Thz]W)) |  | 70.6 ± 20.1 nM |
